The values that follow come from patent publication EP4617273A1, “FUSED TRICYCLIC PARP1 INHIBITOR, PREPARATION METHOD THEREFOR, AND USE THEREOF” (Haihe Biopharma Co., Ltd., priority 2022, dated 2024).

The assay deals with Recombinant human PARP1 protein (Homo sapiens, UniProt P09874). Briefly: biochemical.
Chain of Recombinant human PARP1 protein (P09874 whole entry): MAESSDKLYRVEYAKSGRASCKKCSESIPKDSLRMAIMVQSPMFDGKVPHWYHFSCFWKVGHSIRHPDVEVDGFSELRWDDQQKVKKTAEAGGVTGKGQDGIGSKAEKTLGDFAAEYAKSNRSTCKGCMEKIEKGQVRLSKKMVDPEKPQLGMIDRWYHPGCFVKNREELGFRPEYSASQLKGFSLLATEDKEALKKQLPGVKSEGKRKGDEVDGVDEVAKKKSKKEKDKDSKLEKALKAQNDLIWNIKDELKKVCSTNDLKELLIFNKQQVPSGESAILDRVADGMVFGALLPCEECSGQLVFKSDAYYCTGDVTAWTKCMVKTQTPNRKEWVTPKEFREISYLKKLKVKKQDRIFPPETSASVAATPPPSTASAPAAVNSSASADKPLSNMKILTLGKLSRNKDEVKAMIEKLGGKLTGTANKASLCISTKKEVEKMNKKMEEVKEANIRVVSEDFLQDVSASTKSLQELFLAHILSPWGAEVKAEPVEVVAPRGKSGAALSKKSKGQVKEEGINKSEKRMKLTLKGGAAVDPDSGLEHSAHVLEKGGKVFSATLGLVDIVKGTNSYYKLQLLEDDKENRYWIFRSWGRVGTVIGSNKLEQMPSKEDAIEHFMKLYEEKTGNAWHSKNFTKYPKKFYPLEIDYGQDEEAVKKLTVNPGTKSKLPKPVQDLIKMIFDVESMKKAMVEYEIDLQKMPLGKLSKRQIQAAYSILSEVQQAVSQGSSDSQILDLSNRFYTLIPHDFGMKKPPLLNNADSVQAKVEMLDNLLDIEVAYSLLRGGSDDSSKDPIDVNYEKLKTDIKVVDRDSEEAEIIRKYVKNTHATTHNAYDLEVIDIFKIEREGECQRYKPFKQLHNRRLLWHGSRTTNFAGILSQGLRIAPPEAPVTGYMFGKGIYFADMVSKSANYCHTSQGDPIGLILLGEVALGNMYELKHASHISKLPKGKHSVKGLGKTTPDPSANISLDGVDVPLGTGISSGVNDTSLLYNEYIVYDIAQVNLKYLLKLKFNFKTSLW
Method: The PARP1/2 inhibitory activity of the compounds of the present invention was tested in an assay using Histone as a substrate.
Aim of the assay: to test the PARP1/2 enzymatic activity inhibition IC50 values of the compounds of the present application according to established experimental methods.
1. Compound Configuration: Dilute the compounds with DMSO in 384-well plates to a 1000-fold final concentration and set aside.
1) Dilute Histone with PBS, add 25uL of Histone mixture to each well and incubate for 2 h. 2) Wash each well 5 times using PBST solution. Remove the solution with a clean paper towel.3) Add 75 uL of Blocking buffer to each well and incubate for 1 h at rt. 4) Wash each well 5 times using PBST solution. Remove the solution with a clean paper towel.
2) Use 1× Assay buffer to prepare 2.5× final concentration of PARP1 solution. 3) Add 10 uL of enzyme solution to the compound wells and Max control wells; add 10 uL of 1× Assay buffer. […] 6) Centrifuge at 1000 rpm for 60 seconds and incubate at rt for 2 h. 7) Each well was washed 5 times with PBST solution. Remove the solution with a clean paper towel.
1) Prepare Streptavidin-HRP solution, add 25 µL to each well, centrifuge at 1000 rpm for 60 sec, and incubate at rt for 30 min. 2) Wash each well 5 times using PBST solution. Remove the solution with a clean paper towel. 3) Add 50 µL of ELISA Chemiluminescent Substrate per well. 4) Centrifuge at 1000 rpm for 60 seconds and read with EnSight after 5 min.
The inhibition rate was calculated using the following formula: % inhibition = (max signal - compound signal) / (max signal - min signal) × 100, where 'min signal' is the mean value of negative control wells and 'max signal' is the mean value of positive control wells.
Fitting the quantitative effect curve: using the log value of the concentration as the X-axis and the percentage inhibition as the Y-axis; using the log(inhibitor) vs. response-variable slope method in software GraphPadPrism5 to fit the quantitative effect curve to calculate the IC50 value for the inhibition of the enzyme activity by the compounds of the present invention. The fitting formula is: Y=Bottom+ (Top-Bottom)/(1+10^((logIC50-X)*HillSlope)).
For the compound `CCNC(=O)c1ccc(N2CCN(Cc3ccc4c(c3F)NC(=O)N3CCCN=C43)CC2)c(C)n1` [Compound 184], the IC50 came to 1.13 nM.
For the compound `CNC(=O)c1ccc(N2CCN(Cc3ccc4c(c3F)NC(=O)N3C[C@@H](C)N=C43)CC2)c(C(F)F)n1` [Compound 203], the IC50 was determined as 1.4 nM.
For `CNC(=O)c1ccc(N2CCN(Cc3ccc4c(c3F)NC(=O)N3CC[C@@H](C)N=C43)CC2)c(F)n1` [Compound 143] the value was 4.6 nM; for `CNC(=O)c1ccc(N2CCN(Cc3ccc4c(c3)NC(=O)N3C[C@@H](C)N=C43)CC2)c(Cl)n1` [Compound 189], 0.67 nM.
For `Cc1nc(C(=O)NC2CC2)ccc1N1CCN(Cc2ccc3c(c2F)NC(=O)N2CCN=C32)CC1` [Compound 130] the value was 3.4 nM.
For `CNC(=O)c1ccc(N2CCN(C(C)c3ccc4c([nH]c(=O)c5cn(C)nc54)c3F)CC2)c(F)n1` (centres unmarked) [Compound 19] the value was 273 nM; for `CNC(=O)c1ccc(N2CCN(Cc3ccc4c(c3)NC(=O)N3C[C@@H](C)N=C43)CC2)c(C)n1` [Compound 190], 0.34 nM.
As for `CNC(=O)c1ccc(N2CCN(Cc3ccc4c(c3F)NC(=O)N3CCCN=C43)CC2)c(C(F)F)n1` [Compound 204], the IC50 was determined as 1.5 nM.
Then `CNC(=O)c1ccc(N2CCN(Cc3cc4c(cc3Cl)C3=NCCN3C(=O)N4)CC2)c(F)n1` [Compound 135], with 9.6 nM; and `CC(c1ccc2c([nH]c(=O)c3ccnn32)c1F)N1CCN(c2ccc(F)cc2F)CC1` (centres unmarked) [Compound 99], with 571 nM; and `C[C@@H]1CN2C(=O)Nc3c(ccc(CN4CCN(c5ccc(C#N)cn5)CC4)c3F)C2=N1` [Compound 187], with 0.95 nM.
For `O=C1Nc2c(ccc(CN3CCN(c4ccc(F)cc4F)CC3)c2F)C2=NCCCN12` [Compound 195] the value was 40.8 nM; for `CNC(=O)c1ccc(N2CCN(Cc3ccc4c(c3F)NC(=O)N3C[C@@H](C)N=C43)[C@H](C)C2)c(Cl)n1` [Compound 197], 0.3 nM.
Then `CNC(=O)c1ccc(C2CCN(Cc3ccc4c(c3F)NC(=O)N3C[C@@H](C)N=C43)CC2)c(Cl)n1` [Compound 194], with 2.2 nM; and `CCNC(=O)c1ccc(N2CCN(Cc3ccc4c(c3F)NC(=O)N3CCN=C43)CC2)c(F)n1` [Compound 128], with 2.2 nM; and `O=C(N[C@@H]1CCOC1)c1ccc(N2CCN(Cc3ccc4c([nH]c(=O)c5ccnn54)c3F)CC2)c(F)n1` [Compound 112], with 14.2 nM.
Regarding `CNC(=O)c1ccc(N2CCN(Cc3ccc4c(c3)NC(=O)N3CCCN=C43)CC2)c(C)n1` [Compound 192], the IC50 was determined as 1 nM.
Take `CNC(=O)c1ccc(O[C@H]2CN(Cc3ccc4c(c3F)NC(=O)N3C[C@@H](C)N=C43)[C@@H]2C)cn1` [Compound 199]: the IC50 came to 0.6 nM.
Then `CNC(=O)c1ccc(N2CCN(Cc3ccc4c(c3C)NC(=O)N3CCN=C43)CC2)c(F)n1` [Compound 127], with 7.3 nM; and `C[C@@H]1CN2C(=O)Nc3c(ccc(CN4CCN(c5ccc(C(=O)NCC(F)F)nc5Cl)CC4)c3F)C2=N1` [Compound 198], with 0.5 nM.
For `CNC(=O)c1ccc(N2CCN(Cc3ccc4c(c3)[nH]c(=O)n3cc(C)nc43)CC2)c(F)n1` [Compound 117] the value was 0.5 nM; for `CNC(=O)c1ccc(N2CCN(Cc3ccc4c(c3)[nH]c(=O)c3cnn(C)c34)CC2)c(F)n1` [Compound 16], 0.22 nM; for `CNC(=O)c1ccc(N2CCN(Cc3ccc4c([nH]c(=O)c5sccc54)c3F)CC2)c(F)n1` [Compound 77], 0.6 nM.
For `CC(c1ccc2c([nH]c(=O)c3ccnn32)c1F)N1CCN(c2ccc(C#N)cn2)CC1` (centres unmarked) [Compound 98] the value was 18.4 nM; for `O=C(NC1CC1)c1ccc(N2CCN(Cc3ccc4c(c3F)NC(=O)N3CCCN=C43)CC2)c(Cl)n1` [Compound 202], 1.6 nM; for `CNC(=O)c1ccc(N2CCN(Cc3ccc4c([nH]c(=O)c5cnnn54)c3F)CC2)c(F)n1` [Compound 26], 17.7 nM.
